# In patent US20160038448A1, “THE INHIBITION OF THE TOXIC EFFECTS OF ISLET AMYLOID FORMATION BY FLURBIPROFEN AND FLURBIPROFEN DERIVATIVES” (The Research Foundation for the State University of New York, priority 2013, published 2016):
# “Also recorded” adds a separate entry of the source.
# How the values were obtained:
# Assay type in all cases: biochemical
# human IAPP = target: T1, human IAPP (Homo sapiens, UniProt P10997); experiment: Fluorescence detected thioflavin-T assay of the time course of amyloid formation; conditions: pH 7.4, 25° C.
# T1 construct: Mature, fully processed, Amylin is 37 residues in length, contains a disulfide bond between residues 2 and 7; made in house; host or cells: chemical solid-phase peptide synthesis (Fmoc), no expression host
# T1 sequence (P10997 34-70 limits assumed): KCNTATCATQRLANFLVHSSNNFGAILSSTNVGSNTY
# Protocol: Peptides were first dissolved in 100% hexafluoroisopropanol (HFIP) at a concentration 1.6 mM and then filtered to remove any preformed amyloid aggregates. For thioflavin-T fluorescence assays, aliquots were lyophilized and redissolved in pH 7.4, 20 mM Tris-HCl buffer at the desired concentration. Aspirin and Ketoprofen were prepared in 100% dimethyl sulfoxide (DMSO).
# Solutions were prepared by adding pH 7.4, 20 mM Tris buffer and thioflavin-T to lyophilized dry peptides for a final peptide concentration of […]. For the studies of Aspirin and Ketoprofen, 0.25% DMSO was present in the solution. Measurements were made at 25° C. using a Beckman Coulter DTX880 plate reader without stirring. An excitation filter of 430 nm and an emission filter of 485 nm were used. To test disaggregate activity of Aspirin, peptide was first incubated in low-binding 96-wells plate and monitored by plate reader to ensure the formation of amyloid fibrils.
# A mixture of flurbiprofen (1-20 parts) and human IAPP (1 part) was monitored by fluorescence detected thioflavin-T assays. The assays monitored the time course of amyloid formation (amount vs time) in the presence and absence of flurbiprofen.
# A mixture of OH-flurbiprofen and human IAPP were monitored by fluorescence detected thioflavin-T assays. Three different concentrations (1:1 ratio, 1:10 ratio and 1:20 ratio of IAPP to OH-flurbiprofen) were tested against human IAPP without any added OH-flurbiprofen. The assays monitored the time course of amyloid formation (amount vs time) in the presence and absence of a flurbiprofen derivative.
# Three different mixtures of NSAIDs (20 parts) and human IAPP (1 parts) were compared to each other and human IAPP alone by fluorescence detected thioflavin-T assays. The assays monitored the time course of amyloid formation (amount vs time) in the presence and absence of aspirin, naproxen and flurbiprofen.
# human IAPP (amylin) = target: T2, human IAPP (amylin) (Homo sapiens, UniProt P10997); experiment: Transmission electron microscopy of amyloid fibrils; conditions: 20-fold excess of NSAID over human IAPP, end of kinetic experiment
# T2 construct: Mature, fully processed, Amylin is 37 residues in length, contains a disulfide bond between residues 2 and 7; made in house; host or cells: chemical solid-phase peptide synthesis (Fmoc), no expression host
# T2 sequence (P10997 34-70 limits assumed): T1 sequence (P10997 34-70 limits assumed)
# Protocol: TEM was performed at the Life Science Microscopy Center at Stony Brook University. Aliquots were removed from the same solutions that were used for the fluorescence measurements. 5 μL of peptide solution was placed on carbon-coated Formvar 300 mesh copper grid for one minute and then negatively stained with saturated uranyl acetate for another one minute.
# human amylin = target: T3, human amylin (Homo sapiens, UniProt P10997); experiment: Right angle light scattering assay (RALS) without thioflavin-T; conditions: 20-fold excess of aspirin (320 μM), amylin 16 μM, no thioflavin-T
# T3 construct: Mature, fully processed, Amylin is 37 residues in length, contains a disulfide bond between residues 2 and 7; made in house; host or cells: chemical solid-phase peptide synthesis (Fmoc), no expression host
# T3 sequence (P10997 34-70 limits assumed): T1 sequence (P10997 34-70 limits assumed)
# Protocol: Solutions were prepared by adding pH 7.4, 20 mM Tris buffer without thioflavin-T to lyophilized dry peptides for a final peptide concentration of 16 […] used an excitation and emission wavelength of 500 nm.
# [1] = target: T4, pre-formed human amylin amyloid fibrils (Homo sapiens, UniProt P10997); experiment: Disaggregation of pre-formed amylin amyloid fibrils (thioflavin-T and TEM); conditions: 20-fold excess added after amyloid formation was complete, up to 48 hours
# T4 construct: Mature, fully processed, Amylin is 37 residues in length, contains a disulfide bond between residues 2 and 7; made in house; host or cells: chemical solid-phase peptide synthesis (Fmoc), no expression host
# T4 sequence (P10997 34-70 limits assumed): T1 sequence (P10997 34-70 limits assumed)
# Protocol: Solutions were prepared by adding pH 7.4, 20 mM Tris buffer and thioflavin-T to lyophilized dry peptides for a final peptide concentration of 16 M. For the studies of Aspirin and Ketoprofen, 0.25% DMSO was present in the solution. Measurements were made at 25° C. using a Beckman Coulter DTX880 plate reader without stirring. An excitation filter of 430 nm and an emission filter of 485 nm were used.
smiles,measurement,setting,value
CC(=O)Oc1ccccc1C(=O)O [Aspirin],inhibition of amyloid formation by human IAPP (amylin),human IAPP; 20 to 1 ratio of NSAID to human IAPP,do not inhibit amylin amyloid formation; also recorded: no inhibition of amyloid; also recorded: does not inhibit amyloid formation by human amylin
same,final thioflavin-T intensity,"human IAPP; amylin 16 μM, aspirin up to 20-fold excess, 0.25% DMSO",no detectable effect on the final thioflavin-T intensity
same,rate of amyloid formation as judged by T50,"human IAPP; amylin 16 μM, aspirin up to a 20-fold excess",no detectable effect on the rate of amyloid formation
same,amyloid fibrils by TEM in presence of NSAID,human IAPP (amylin),no changes in amyloid formation
same,amyloid fibrils by TEM in presence of NSAID,human IAPP (amylin); listed as aspirin,Extensive matts of fibrils; also recorded: does not inhibit IAPP amyloid formation
same,aggregation curves by right angle light scattering,human amylin,does not inhibit amyloid formation by human amylin
same,disaggregation of pre-formed amylin amyloid fibrils,[1],unable to disassemble pre-formed amylin amyloid; also recorded: does not disaggregate pre-formed human amylin amyloid fibrils
same,disaggregation of pre-formed amylin amyloid fibrils,[1]; listed as aspirin,does not disaggregate amylin amyloid; also recorded: no effect on the thioflavine-T signal
